Activity calls are given as the source filed them.
Columns and labels:
[1] = target: T1, Mitogen-activated protein kinase kinase kinase kinase 3 (Homo sapiens, UniProt Q8IVH8)
T1 sequence (Q8IVH8 whole entry): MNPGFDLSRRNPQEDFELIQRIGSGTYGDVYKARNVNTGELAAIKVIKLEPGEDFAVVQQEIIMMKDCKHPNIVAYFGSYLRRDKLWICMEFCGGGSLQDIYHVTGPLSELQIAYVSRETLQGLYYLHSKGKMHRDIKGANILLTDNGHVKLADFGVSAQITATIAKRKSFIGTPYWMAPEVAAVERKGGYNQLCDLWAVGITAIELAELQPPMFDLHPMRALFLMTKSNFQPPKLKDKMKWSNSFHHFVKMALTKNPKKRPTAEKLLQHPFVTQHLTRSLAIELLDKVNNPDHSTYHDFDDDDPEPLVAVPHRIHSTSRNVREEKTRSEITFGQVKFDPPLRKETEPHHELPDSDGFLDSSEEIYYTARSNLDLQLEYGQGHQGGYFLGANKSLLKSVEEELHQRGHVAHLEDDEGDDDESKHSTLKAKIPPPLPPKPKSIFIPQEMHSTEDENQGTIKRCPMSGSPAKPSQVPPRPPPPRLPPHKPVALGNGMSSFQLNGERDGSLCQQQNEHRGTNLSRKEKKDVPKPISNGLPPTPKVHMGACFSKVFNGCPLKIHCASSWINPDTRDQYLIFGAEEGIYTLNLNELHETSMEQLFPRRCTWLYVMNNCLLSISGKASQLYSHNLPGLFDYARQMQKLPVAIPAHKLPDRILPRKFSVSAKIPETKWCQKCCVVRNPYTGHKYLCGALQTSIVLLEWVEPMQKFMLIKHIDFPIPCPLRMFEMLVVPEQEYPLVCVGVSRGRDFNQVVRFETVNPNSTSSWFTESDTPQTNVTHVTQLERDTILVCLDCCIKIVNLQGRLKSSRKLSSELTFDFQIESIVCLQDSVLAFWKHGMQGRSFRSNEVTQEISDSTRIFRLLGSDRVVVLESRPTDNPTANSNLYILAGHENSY

[2] = target: Atypical kinase COQ8A, mitochondrial (Homo sapiens, UniProt Q8NI60)
Sequence of Atypical kinase COQ8A, mitochondrial (Q8NI60 whole entry): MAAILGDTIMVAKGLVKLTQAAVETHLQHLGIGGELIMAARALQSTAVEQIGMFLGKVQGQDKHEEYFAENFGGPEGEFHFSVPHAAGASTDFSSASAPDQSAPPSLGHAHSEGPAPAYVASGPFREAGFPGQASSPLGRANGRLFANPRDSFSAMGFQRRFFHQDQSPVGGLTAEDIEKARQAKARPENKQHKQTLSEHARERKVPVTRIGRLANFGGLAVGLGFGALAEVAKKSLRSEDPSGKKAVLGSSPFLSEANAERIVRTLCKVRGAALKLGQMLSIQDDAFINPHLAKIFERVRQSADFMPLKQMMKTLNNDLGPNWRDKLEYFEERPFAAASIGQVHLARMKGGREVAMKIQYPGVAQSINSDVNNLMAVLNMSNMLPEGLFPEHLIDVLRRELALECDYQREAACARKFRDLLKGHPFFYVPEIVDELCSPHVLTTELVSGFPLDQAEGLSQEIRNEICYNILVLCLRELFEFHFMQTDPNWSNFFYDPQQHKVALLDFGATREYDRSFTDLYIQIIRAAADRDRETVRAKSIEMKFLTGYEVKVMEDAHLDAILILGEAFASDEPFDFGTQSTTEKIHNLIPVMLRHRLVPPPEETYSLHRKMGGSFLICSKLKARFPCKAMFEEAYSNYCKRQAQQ

[3] = target: Serine/threonine-protein kinase N2 (Homo sapiens, UniProt Q16513)
Sequence of Serine/threonine-protein kinase N2 (Q16513 whole entry): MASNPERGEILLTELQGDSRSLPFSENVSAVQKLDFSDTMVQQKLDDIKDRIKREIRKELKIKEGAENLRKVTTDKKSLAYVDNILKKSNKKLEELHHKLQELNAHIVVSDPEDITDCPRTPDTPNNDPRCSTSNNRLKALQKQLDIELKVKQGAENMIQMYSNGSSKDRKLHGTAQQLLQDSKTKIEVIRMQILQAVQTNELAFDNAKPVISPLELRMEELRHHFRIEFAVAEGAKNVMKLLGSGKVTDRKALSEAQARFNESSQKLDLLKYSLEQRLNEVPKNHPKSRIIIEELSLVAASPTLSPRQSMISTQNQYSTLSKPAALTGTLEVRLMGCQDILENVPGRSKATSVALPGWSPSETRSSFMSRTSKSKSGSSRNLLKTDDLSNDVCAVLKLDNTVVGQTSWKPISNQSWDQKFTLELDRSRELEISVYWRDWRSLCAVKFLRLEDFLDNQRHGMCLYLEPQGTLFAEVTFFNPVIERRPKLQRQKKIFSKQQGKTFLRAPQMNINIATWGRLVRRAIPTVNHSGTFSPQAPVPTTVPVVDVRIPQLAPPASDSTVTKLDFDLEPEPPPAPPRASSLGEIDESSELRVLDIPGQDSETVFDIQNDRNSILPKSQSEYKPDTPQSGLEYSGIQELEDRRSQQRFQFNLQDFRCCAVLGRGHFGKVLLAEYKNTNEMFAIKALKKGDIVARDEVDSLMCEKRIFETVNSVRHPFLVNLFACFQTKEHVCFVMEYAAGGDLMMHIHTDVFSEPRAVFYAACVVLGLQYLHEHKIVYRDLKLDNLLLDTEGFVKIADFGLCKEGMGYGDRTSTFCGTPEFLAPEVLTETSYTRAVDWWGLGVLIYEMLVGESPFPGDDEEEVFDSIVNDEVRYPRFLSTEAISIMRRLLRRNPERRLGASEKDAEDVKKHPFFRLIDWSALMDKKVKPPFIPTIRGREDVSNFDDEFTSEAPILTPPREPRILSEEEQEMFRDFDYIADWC

[4] = target: T2, Very long-chain specific acyl-CoA dehydrogenase, mitochondrial (Homo sapiens, UniProt P49748)
T2 sequence (P49748 whole entry): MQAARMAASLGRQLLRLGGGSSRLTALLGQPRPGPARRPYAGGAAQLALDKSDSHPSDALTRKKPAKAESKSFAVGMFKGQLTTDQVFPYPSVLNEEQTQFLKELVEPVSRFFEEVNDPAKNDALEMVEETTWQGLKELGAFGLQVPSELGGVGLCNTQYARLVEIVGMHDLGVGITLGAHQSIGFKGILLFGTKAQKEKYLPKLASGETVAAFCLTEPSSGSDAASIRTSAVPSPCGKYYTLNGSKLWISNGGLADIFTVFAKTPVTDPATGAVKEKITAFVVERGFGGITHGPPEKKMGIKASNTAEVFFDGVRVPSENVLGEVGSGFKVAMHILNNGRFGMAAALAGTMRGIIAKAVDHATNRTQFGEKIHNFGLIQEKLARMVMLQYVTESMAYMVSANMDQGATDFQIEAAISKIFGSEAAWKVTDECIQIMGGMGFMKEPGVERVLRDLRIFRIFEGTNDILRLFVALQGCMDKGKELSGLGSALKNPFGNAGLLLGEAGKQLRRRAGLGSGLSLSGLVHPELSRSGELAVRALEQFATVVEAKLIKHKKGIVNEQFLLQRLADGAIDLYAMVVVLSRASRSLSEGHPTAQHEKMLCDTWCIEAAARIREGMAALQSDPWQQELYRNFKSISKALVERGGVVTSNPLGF

[5] = target: Tyrosine-protein kinase JAK1 (Homo sapiens, UniProt P23458)
Sequence of Tyrosine-protein kinase JAK1 (P23458 whole entry): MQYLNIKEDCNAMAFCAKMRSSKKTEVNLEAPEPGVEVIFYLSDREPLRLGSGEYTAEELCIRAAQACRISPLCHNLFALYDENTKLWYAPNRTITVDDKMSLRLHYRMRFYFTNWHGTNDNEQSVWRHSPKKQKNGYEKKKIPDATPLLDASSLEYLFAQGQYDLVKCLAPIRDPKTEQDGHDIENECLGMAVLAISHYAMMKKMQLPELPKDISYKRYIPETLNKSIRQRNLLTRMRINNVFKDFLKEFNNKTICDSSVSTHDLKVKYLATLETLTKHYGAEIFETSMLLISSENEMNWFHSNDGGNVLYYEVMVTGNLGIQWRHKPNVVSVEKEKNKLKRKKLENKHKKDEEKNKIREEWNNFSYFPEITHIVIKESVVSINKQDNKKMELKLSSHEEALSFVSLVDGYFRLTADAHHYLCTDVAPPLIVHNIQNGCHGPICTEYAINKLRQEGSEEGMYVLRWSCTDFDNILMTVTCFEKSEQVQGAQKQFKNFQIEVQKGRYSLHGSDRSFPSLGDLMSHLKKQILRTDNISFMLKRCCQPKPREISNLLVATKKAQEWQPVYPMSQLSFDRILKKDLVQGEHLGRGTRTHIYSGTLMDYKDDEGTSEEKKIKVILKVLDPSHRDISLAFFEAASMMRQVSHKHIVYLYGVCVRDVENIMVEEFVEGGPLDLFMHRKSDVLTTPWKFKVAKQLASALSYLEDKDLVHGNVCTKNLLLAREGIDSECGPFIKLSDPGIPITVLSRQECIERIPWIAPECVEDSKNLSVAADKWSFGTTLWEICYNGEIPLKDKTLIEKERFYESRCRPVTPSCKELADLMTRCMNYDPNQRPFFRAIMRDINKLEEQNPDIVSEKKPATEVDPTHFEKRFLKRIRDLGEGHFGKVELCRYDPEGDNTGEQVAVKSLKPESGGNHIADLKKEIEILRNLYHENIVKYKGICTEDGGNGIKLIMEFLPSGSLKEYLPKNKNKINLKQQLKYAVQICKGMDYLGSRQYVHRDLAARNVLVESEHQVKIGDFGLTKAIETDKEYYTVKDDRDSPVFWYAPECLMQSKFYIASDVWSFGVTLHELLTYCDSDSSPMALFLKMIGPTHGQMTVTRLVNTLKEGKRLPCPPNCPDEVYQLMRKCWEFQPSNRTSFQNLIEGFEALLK

[6] = target: T3, Structural maintenance of chromosomes protein 1A (Homo sapiens, UniProt Q14683)
T3 sequence (Q14683 whole entry): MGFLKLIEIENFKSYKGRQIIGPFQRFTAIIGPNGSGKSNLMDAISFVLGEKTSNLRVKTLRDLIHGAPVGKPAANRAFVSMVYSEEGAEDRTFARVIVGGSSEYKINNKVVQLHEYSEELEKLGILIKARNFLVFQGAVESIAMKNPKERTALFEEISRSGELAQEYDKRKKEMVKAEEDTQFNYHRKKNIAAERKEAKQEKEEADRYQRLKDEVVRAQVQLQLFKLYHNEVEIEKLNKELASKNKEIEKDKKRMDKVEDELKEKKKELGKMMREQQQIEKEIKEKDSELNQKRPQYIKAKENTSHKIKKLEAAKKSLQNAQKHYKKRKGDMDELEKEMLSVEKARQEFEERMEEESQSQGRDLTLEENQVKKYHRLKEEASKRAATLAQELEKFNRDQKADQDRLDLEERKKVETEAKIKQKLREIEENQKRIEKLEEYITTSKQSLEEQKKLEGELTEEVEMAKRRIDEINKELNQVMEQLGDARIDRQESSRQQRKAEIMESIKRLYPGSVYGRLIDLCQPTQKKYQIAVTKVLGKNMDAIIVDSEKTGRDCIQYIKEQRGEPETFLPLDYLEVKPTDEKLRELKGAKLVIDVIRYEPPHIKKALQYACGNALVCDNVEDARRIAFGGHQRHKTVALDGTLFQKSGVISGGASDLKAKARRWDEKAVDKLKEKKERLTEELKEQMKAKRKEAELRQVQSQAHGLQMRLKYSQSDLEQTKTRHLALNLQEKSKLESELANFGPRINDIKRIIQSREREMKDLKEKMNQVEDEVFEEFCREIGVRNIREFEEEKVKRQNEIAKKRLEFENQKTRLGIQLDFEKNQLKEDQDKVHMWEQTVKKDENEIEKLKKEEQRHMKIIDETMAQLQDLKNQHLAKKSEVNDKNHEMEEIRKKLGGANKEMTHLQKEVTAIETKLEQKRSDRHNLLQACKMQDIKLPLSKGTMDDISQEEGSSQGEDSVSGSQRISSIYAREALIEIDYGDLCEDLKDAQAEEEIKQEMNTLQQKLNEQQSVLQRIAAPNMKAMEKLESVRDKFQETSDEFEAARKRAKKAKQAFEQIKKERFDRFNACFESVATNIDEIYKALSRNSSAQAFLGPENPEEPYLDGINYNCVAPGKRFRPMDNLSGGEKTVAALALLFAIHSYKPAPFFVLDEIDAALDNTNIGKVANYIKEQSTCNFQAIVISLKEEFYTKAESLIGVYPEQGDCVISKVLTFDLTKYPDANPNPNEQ

[7] = target: cAMP-dependent protein kinase catalytic subunit gamma (Homo sapiens, UniProt P22612)
Sequence of cAMP-dependent protein kinase catalytic subunit gamma (P22612 whole entry): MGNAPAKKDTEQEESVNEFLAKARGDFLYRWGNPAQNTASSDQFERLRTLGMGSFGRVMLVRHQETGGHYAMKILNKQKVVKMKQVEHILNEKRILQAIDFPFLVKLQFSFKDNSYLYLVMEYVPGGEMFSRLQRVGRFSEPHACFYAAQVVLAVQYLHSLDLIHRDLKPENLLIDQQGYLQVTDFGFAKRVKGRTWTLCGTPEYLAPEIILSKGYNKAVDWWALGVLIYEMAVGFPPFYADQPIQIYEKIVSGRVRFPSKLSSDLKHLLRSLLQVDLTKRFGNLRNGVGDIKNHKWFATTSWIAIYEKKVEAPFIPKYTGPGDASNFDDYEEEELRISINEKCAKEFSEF
Also: in the data inactive means no Kd found up to 30 µM.

SMILES | Kd [1] | Kd [2] | Kd [3] | Kd [4] | Kd [5] | Kd [6] | Kd [7]
O=c1[nH]c([C@@H]2CCCN2)nc2c1oc1ccc(Cl)cc12 | > 30 µM (inactive) | > 30 µM (inactive) | > 30 µM (inactive) | > 30 µM (inactive) | > 30 µM (inactive) | – | –
C=CCn1c(=O)c2cnc(Nc3ccc(N4CCN(C)CC4)cc3)nc2n1-c1cccc(C(C)(C)O)n1 [ADAVOSERTIB] | > 30 µM (inactive) | > 30 µM (inactive) | – | > 30 µM (inactive) | > 30 µM (inactive) | > 30 µM (inactive) | > 30 µM (inactive)
CN(C)C/C=C/C(=O)Nc1cc2c(Nc3ccc(F)c(Cl)c3)ncnc2cc1O[C@H]1CCOC1 [AFATINIB] | – | – | – | > 30 µM (inactive) | – | – | > 30 µM (inactive)
S=C(NCc1ccc2c(c1)OCO2)N1CCN(c2ncnc3c2oc2ccccc23)CC1 [AMUVATINIB] | > 30 µM (inactive) | > 30 µM (inactive) | > 30 µM (inactive) | > 30 µM (inactive) | > 30 µM (inactive) | > 30 µM (inactive) | –
NC[C@@](O)(c1ccc(Cl)cc1)c1ccc(-c2cn[nH]c2)cc1 [AT-13148] | > 30 µM (inactive) | > 30 µM (inactive) | 0.009 µM (active) | > 30 µM (inactive) | > 30 µM (inactive) | > 30 µM (inactive) | –
C[C@@]1(C(=O)Nc2ccc(F)nc2)CCCN1c1nc(Nc2cc(C3CC3)n[nH]2)c2cccn2n1 [BMS-754807] | – | – | – | > 30 µM (inactive) | – | > 30 µM (inactive) | > 30 µM (inactive)
c1cc(OCCN2CCCCC2)cc(-c2n[nH]c3ccc(-c4nc[nH]n4)cc23)c1 [CC-401] | > 30 µM (inactive) | > 30 µM (inactive) | > 30 µM (inactive) | – | > 30 µM (inactive) | – | > 30 µM (inactive)
COc1cc2c(Oc3ccc4[nH]c(C)cc4c3F)ncnc2cc1OCCCN1CCCC1 [CEDIRANIB] | – | – | – | > 30 µM (inactive) | – | > 30 µM (inactive) | –
COc1cc2ncnc(Nc3ccc(F)c(Cl)c3)c2cc1NC(=O)/C=C/CN1CCCCC1 [DACOMITINIB ANHYDROUS] | > 30 µM (inactive) | > 30 µM (inactive) | > 30 µM (inactive) | > 30 µM (inactive) | > 30 µM (inactive) | – | –
Cn1c(=O)n(-c2ccc(C(C)(C)C#N)cc2)c2c3cc(-c4cnc5ccccc5c4)ccc3ncc21 [DACTOLISIB] | > 30 µM (inactive) | > 30 µM (inactive) | – | > 30 µM (inactive) | > 30 µM (inactive) | > 30 µM (inactive) | > 30 µM (inactive)
O=S(=O)(c1cccc2cnccc12)N1CCCNCC1 [FASUDIL] | > 30 µM (inactive) | > 30 µM (inactive) | – | > 30 µM (inactive) | > 30 µM (inactive) | > 30 µM (inactive) | –
C#Cc1cccc(Nc2ncnc3cc4c(cc23)OCCOCCOCCO4)c1 [ICOTINIB] | > 30 µM (inactive) | > 30 µM (inactive) | > 30 µM (inactive) | > 30 µM (inactive) | > 30 µM (inactive) | > 30 µM (inactive) | –
C[C@]1(O)C[C@@H](c2nc(-c3ccc4ccc(-c5ccccc5)nc4c3)c3c(N)nccn32)C1 [LINSITINIB] | 15.4 µM (active) | > 30 µM (inactive) | – | > 30 µM (inactive) | > 30 µM (inactive) | > 30 µM (inactive) | > 30 µM (inactive)
Cc1ccc(C(=O)Nc2ccc(Oc3cc4cnn(C)c4cc3-c3cn[nH]c3)c(F)c2)c(=O)n1-c1ccc(F)cc1 [MERESTINIB] | > 30 µM (inactive) | > 30 µM (inactive) | > 30 µM (inactive) | > 30 µM (inactive) | > 30 µM (inactive) | > 30 µM (inactive) | –
N#CCNC(=O)c1ccc(-c2ccnc(Nc3ccc(N4CCOCC4)cc3)n2)cc1 [MOMELOTINIB] | – | > 30 µM (inactive) | > 30 µM (inactive) | > 30 µM (inactive) | – | > 30 µM (inactive) | –
CC1(C)CNc2cc(NC(=O)c3cccnc3NCc3ccncc3)ccc21 [MOTESANIB] | – | – | – | > 30 µM (inactive) | – | > 30 µM (inactive) | –
O=C(Nc1ccc(OC(F)(F)F)cc1)c1sccc1NCc1ccnc2ccccc12 [OSI-930] | > 30 µM (inactive) | > 30 µM (inactive) | > 30 µM (inactive) | > 30 µM (inactive) | > 30 µM (inactive) | > 30 µM (inactive) | –
CN(c1ncccc1CNc1nc(Nc2ccc3c(c2)CC(=O)N3)ncc1C(F)(F)F)S(C)(=O)=O [PF-00562271] | > 30 µM (inactive) | > 30 µM (inactive) | – | > 30 µM (inactive) | > 30 µM (inactive) | > 30 µM (inactive) | > 30 µM (inactive)
Cn1cnc2c(F)c(Nc3ccc(Br)cc3Cl)c(C(=O)NOCCO)cc21 [SELUMETINIB] | – | – | – | > 30 µM (inactive) | – | 0.365 µM | –
CN1CCN(c2nc(C3=C(c4c[nH]c5ccccc45)C(=O)NC3=O)c3ccccc3n2)CC1 [SOTRASTAURIN] | > 30 µM (inactive) | > 30 µM (inactive) | – | > 30 µM (inactive) | > 30 µM (inactive) | > 30 µM (inactive) | > 30 µM (inactive)
Cn1c(=O)c(F)c(Nc2ccc(I)cc2F)c2c(=O)n(C[C@@H](O)CO)cnc21 [TAK-733] | > 30 µM (inactive) | > 30 µM (inactive) | > 30 µM (inactive) | > 30 µM (inactive) | > 30 µM (inactive) | > 30 µM (inactive) | –
COc1cc2c(N3CCN(C(=O)Nc4ccc(OC(C)C)cc4)CC3)ncnc2cc1OCCCN1CCCCC1 [TANDUTINIB] | – | – | – | > 30 µM (inactive) | – | – | > 30 µM (inactive)
CNC(=O)c1cccc(-c2ccc3c(N4CCOC[C@@H]4C)nc(N4CCOC[C@@H]4C)nc3n2)c1 [VISTUSERTIB] | > 30 µM (inactive) | > 30 µM (inactive) | > 30 µM (inactive) | > 30 µM (inactive) | > 30 µM (inactive) | > 30 µM (inactive) | –

From ChEMBL document CHEMBL3991601, “The target landscape of clinical kinase drugs” (Science, 2017)
